# Test results published in patent US12692262B2, “Substituted ureas as orexin receptor agonists” (Merck Sharp & Dohme LLC, priority 2020, dated 2026).
# Target: T1, human OX2R (Homo sapiens, UniProt O43614)
# T1 construct: expressed in transfected cells; host or cells: CHO (Chinese hamster ovary) cells grown under G418 selection
# T1 sequence (O43614 1-444): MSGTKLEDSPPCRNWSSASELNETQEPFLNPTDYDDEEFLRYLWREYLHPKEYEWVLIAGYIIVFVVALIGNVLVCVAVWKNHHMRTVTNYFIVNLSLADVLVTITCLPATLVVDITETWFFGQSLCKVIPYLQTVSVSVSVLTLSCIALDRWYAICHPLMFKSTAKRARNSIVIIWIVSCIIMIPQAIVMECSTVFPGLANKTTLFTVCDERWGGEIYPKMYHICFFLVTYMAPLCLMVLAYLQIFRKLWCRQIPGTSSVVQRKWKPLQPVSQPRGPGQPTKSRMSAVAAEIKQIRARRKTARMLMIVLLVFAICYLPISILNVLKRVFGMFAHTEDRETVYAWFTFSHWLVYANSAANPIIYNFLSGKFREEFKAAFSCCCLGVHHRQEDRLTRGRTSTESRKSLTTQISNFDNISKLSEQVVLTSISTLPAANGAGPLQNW
# Assay: IPOne (IP-1 accumulation) assay in CHO cells expressing human OX2R
# Assay type: cell-based
# Conditions: for EC50: CHO cells expressing human OX2R, IP-One assay, 2 h incubation, four parameter logistic fit, read-out: OX2R Potency, EC50; for % of maximum agonist effect (relative to Orexin A): percent effect vs mean max effect of a reference compound at 1 uM (100% activity vs Orexin A), human OX2R
# Procedure, shortened: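 Agonist EC50 values come from the inflection point of four-parameter logistic curves. Read-out is IP-1 accumulation detected with lysis buffer plus D2 and AB-cryptate reagents (HTRF), in CHO cells engineered to express human OX2R.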
smiles,measurement,setting,value
"CCN(C(=O)N[C@@H](CCC(F)(F)F)C(F)(F)F)C(C)c1ccnc(-c2cn3ccnc3c(OC)n2)n1 (stereo partly drawn) [Example 2-63, 1-ethyl-3-((S)-1,1,1,5,5,5-hexafluoropentan-2-yl)-1-(1-(2-(8-methoxyimidazo[1,2-a]pyrazin-6-yl)pyrimidin-4-yl)ethyl)urea]",EC50,,1060 nM
same,% of maximum agonist effect (relative to Orexin A),,96.2%
"CCN(C(=O)N[C@@H](CCC(F)(F)F)C(F)(F)F)C(C)c1cnnc(-c2cn3ccnc3c(OC)n2)c1 (stereo partly drawn) [Example 2-64, 1-ethyl-3-((S)-1,1,1,5,5,5-hexafluoropentan-2-yl)-1-(1-(6-(8-methoxyimidazo[1,2-a]pyrazin-6-yl)pyridazin-4-yl)ethyl)urea]",EC50,,2870 nM
same,% of maximum agonist effect (relative to Orexin A),,81.2%
"C#CC(CCC(F)(F)F)NC(=O)N(CC)[C@H](C)c1cccc(-c2cn3ccnc3c(OC)n2)c1 (stereo partly drawn) [Example 2-65, 1-ethyl-1-((R)-1-(3-(8-methoxyimidazo[1,2-a]pyrazin-6-yl)phenyl)ethyl)-3-(6,6,6-trifluorohex-1-yn-3-yl)urea]",EC50,,4 nM
same,% of maximum agonist effect (relative to Orexin A),,100.1%
"CCN(C(=O)NC(c1cccc(F)c1)C(F)(F)F)[C@@H](c1cccc(-c2cn3ccnc3c(OC)n2)c1)C(F)(F)F (stereo partly drawn) [Example 2-66, 1-ethyl-1-((S)-2,2,2-trifluoro-1-(3-(8-methoxyimidazo[1,2-a]pyrazin-6-yl)phenyl)ethyl)-3-(2,2,2-trifluoro-1-(3-fluorophenyl)ethyl)urea]",EC50,,5.2 nM
same,% of maximum agonist effect (relative to Orexin A),,97.2%
"CCN(C(=O)NC1CCC(C(F)(F)F)N(C)C1)[C@@H](c1cccc(-c2cn3ccnc3c(OC)n2)c1)C(F)(F)F (stereo partly drawn) [Example 2-67, 1-ethyl-3-(1-methyl-6-(trifluoromethyl)piperidin-3-yl)-1-((S)-2,2,2-trifluoro-1-(3-(8-methoxyimidazo[1,2-a]pyrazin-6-yl)phenyl)ethyl)urea]",EC50,,7.7 nM
same,% of maximum agonist effect (relative to Orexin A),,98.7%
"CCNC(=O)N(CC)[C@H](C)c1cccc(-c2cc(OC)c3nccn3c2)c1 [Example 2-68, (R)-1,3-diethyl-1-(1-(3-(8-methoxyimidazo[1,2-a]pyridin-6-yl)phenyl)ethyl)urea]",EC50,,179 nM
same,% of maximum agonist effect (relative to Orexin A),,83.3%
"CCN(C(=O)N[C@@H](CCCF)C(F)(F)F)[C@@H](c1cc(-c2cn3cc(C)nc3c(OC)n2)c(OC)cn1)C(F)(F)F [Example 3-2, 1-ethyl-3-((S)-1,1,1,5-tetrafluoropentan-2-yl)-1-((S)-2,2,2-trifluoro-1-(5-methoxy-4-(8-methoxy-2-methylimidazo[1,2-a]pyrazin-6-yl)pyridin-2-yl)ethyl)urea]",EC50,,3.3 nM
same,% of maximum agonist effect (relative to Orexin A),,102.4%
"CCN(C(=O)N[C@@H](CCC(F)F)C(F)(F)F)[C@@H](c1cc(-c2cn3cc(C)nc3c(OC)n2)c(OC)cn1)C(F)(F)F [Example 3-3, 1-ethyl-3-((S)-1,1,1,5,5-pentafluoropentan-2-yl)-1-((S)-2,2,2-trifluoro-1-(5-methoxy-4-(8-methoxy-2-methylimidazo[1,2-a]pyrazin-6-yl)pyridin-2-yl)ethyl)urea]",EC50,,3.6 nM
same,% of maximum agonist effect (relative to Orexin A),,101.6%
"CCN(C(=O)N[C@@H](CCC(F)=C(F)F)C(F)(F)F)[C@@H](c1cc(-c2cn3cc(C)nc3c(OC)n2)c(OC)cn1)C(F)(F)F [Example 3-4, 1-ethyl-3-((S)-1,1,1,5,6,6-hexafluorohex-5-en-2-yl)-1-((S)-2,2,2-trifluoro-1-(5-methoxy-4-(8-methoxy-2-methylimidazo[1,2-a]pyrazin-6-yl)pyridin-2-yl)ethyl)urea]",EC50,,27.8 nM
same,% of maximum agonist effect (relative to Orexin A),,100.5%
"CCN(C(=O)N[C@@H](CC1CC1)C(F)(F)F)[C@@H](c1cc(-c2cn3cc(C)nc3c(OC)n2)c(OC)cn1)C(F)(F)F [Example 3-5, 3-((S)-3-cyclopropyl-1,1,1-trifluoropropan-2-yl)-1-ethyl-1-((S)-2,2,2-trifluoro-1-(5-methoxy-4-(8-methoxy-2-methylimidazo[1,2-a]pyrazin-6-yl)pyridin-2-yl)ethyl)urea]",EC50,,40.5 nM
same,% of maximum agonist effect (relative to Orexin A),,99.3%
"CCN(C(=O)NC(CCC1CC1)C(F)(F)F)[C@H](C)c1cccc(-c2cn3ccnc3c(OC)n2)c1 (stereo partly drawn) [Example 3-6, 3-(4-cyclopropyl-1,1,1-trifluorobutan-2-yl)-1-ethyl-1-((R)-1-(3-(8-methoxyimidazo[1,2-a]pyrazin-6-yl)phenyl)ethyl)urea]",EC50,,2.6 nM
same,% of maximum agonist effect (relative to Orexin A),,99.7%
"C#CCCCC(NC(=O)N(CC)[C@H](C)c1cccc(-c2cn3ccnc3c(OC)n2)c1)C(F)(F)F (stereo partly drawn) [Example 3-7, 1-ethyl-1-((R)-1-(3-(8-methoxyimidazo[1,2-a]pyrazin-6-yl)phenyl)ethyl)-3-(1,1,1-trifluorohept-6-yn-2-yl)urea]",EC50,,4.4 nM
same,% of maximum agonist effect (relative to Orexin A),,100.5%
"CCN(C(=O)N[C@@H](CCC(F)(F)F)C(F)F)[C@@H](c1cc(-c2cn3cc(C)nc3c(OC)n2)c(OC)cn1)C(F)(F)F [Example 4-1, 1-ethyl-3-((S)-1,1,5,5,5-pentafluoropentan-2-yl)-1-((S)-2,2,2-trifluoro-1-(5-methoxy-4-(8-methoxy-2-methylimidazo[1,2-a]pyrazin-6-yl)pyridin-2-yl)ethyl)urea]",EC50,,4.8 nM
same,% of maximum agonist effect (relative to Orexin A),,101.6%
"CCN(C(=O)N[C@@H](CCC(F)F)C(F)F)[C@@H](c1cc(-c2cn3cc(C)nc3c(OC)n2)c(OC)cn1)C(F)(F)F [Example 4-2, 1-ethyl-3-((S)-1,1,5,5-tetrafluoropentan-2-yl)-1-((S)-2,2,2-trifluoro-1-(5-methoxy-4-(8-methoxy-2-methylimidazo[1,2-a]pyrazin-6-yl)pyridin-2-yl)ethyl)urea]",EC50,,5.9 nM
same,% of maximum agonist effect (relative to Orexin A),,99.9%
"CCN(C(=O)N[C@@H](CCCF)C(F)F)[C@@H](c1cc(-c2cn3ncnc3c(OC)n2)c(OC)cn1)C(F)(F)F [Example 4-3, 1-ethyl-1-((S)-2,2,2-trifluoro-1-(5-methoxy-4-(8-methoxy-[1,2,4]triazolo[1,5-a]pyrazin-6-yl)pyridin-2-yl)ethyl)-3-((S)-1,1,5-trifluoropentan-2-yl)urea]",EC50,,17.2 nM
same,% of maximum agonist effect (relative to Orexin A),,101.4%
"CCN(C(=O)N[C@@H](C=C(C)C)C(F)(F)F)[C@H](C)c1cccc(-c2cn3ccnc3c(OC)n2)c1 [Example 5-2, 1-ethyl-1-((R)-1-(3-(8-methoxyimidazo[1,2-a]pyrazin-6-yl)phenyl)ethyl)-3-((S)-1,1,1-trifluoro-4-methylpent-3-en-2-yl)urea]",% of maximum agonist effect (relative to Orexin A),1 µM,99.1%
"C#CC(NC(=O)N(CC)[C@@H](c1cc(-c2cn3ccnc3c(OC)n2)c(OC)cn1)C(F)(F)F)C(F)(F)F (stereo partly drawn) [Example 5-3, 1-ethyl-1-((S)-2,2,2-trifluoro-1-(5-methoxy-4-(8-methoxyimidazo[1,2-a]pyrazin-6-yl)pyridin-2-yl)ethyl)-3-(1,1,1-trifluorobut-3-yn-2-yl)urea]",EC50,,37.4 nM
same,% of maximum agonist effect (relative to Orexin A),,100.5%
